These results are taken from BindingDB's records for doi:10.1016/S0960-894X(01)00722-3 (Janssen-Cilag, 2001).

Where only a bound is given, the exact number is not on record here.

Test [1] addresses T1, 5-hydroxytryptamine receptor 2C (Homo sapiens, UniProt P28335).
T1 sequence (P28335 whole entry): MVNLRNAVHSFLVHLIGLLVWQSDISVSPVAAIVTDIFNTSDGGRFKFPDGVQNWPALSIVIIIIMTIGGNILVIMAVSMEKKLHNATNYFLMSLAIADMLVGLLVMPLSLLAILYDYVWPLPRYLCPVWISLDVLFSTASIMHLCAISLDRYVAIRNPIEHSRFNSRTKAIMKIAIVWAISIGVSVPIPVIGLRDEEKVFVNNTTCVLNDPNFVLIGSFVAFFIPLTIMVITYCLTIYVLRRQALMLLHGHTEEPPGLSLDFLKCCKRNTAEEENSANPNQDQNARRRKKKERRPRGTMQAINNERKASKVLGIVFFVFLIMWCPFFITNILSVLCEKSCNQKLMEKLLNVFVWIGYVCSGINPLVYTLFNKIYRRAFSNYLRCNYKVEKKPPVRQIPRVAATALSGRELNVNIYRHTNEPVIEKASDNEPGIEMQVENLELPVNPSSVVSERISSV
Kind of test: ChEBML_2740. The source says:
Binding affinity at human cloned 5-hydroxytryptamine 2C receptor expressed in CHO cells by [3H]mesulergine displacement.

A further test concerns the target Histamine H1 receptor (Homo sapiens, UniProt P35367). Kind of test: ChEBML_84541. An excerpt: Binding affinity at human cloned Histamine H1 receptor expressed in CHO cells by [3H]pyrilamine displacement.
The target in test [2] is T2, Alpha-2C adrenergic receptor (Homo sapiens, UniProt P18825).
T2 sequence (P18825 whole entry): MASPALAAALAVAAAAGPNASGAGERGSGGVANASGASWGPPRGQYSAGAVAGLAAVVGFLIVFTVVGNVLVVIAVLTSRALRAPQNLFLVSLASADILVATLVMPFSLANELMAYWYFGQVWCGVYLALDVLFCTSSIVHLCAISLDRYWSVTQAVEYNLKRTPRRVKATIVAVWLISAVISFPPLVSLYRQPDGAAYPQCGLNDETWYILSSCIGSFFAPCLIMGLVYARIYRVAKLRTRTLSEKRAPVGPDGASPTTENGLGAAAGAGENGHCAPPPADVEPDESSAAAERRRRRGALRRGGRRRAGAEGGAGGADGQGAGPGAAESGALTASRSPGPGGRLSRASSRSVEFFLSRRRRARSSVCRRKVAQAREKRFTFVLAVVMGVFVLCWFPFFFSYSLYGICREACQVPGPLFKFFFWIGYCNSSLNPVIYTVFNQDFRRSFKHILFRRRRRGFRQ
In words: ChEBML_33661. The source says:
Binding affinity for human cloned Alpha-2C adrenergic receptor

Test [3] deals with 5-hydroxytryptamine receptor 1D (Homo sapiens, UniProt P28221). In words: ChEBML_1745. The source says: Binding affinity for human cloned 5-hydroxytryptamine 1D receptor
A further test deals with T3, D(4) dopamine receptor (Homo sapiens, UniProt P21917).
T3 sequence (P21917 whole entry): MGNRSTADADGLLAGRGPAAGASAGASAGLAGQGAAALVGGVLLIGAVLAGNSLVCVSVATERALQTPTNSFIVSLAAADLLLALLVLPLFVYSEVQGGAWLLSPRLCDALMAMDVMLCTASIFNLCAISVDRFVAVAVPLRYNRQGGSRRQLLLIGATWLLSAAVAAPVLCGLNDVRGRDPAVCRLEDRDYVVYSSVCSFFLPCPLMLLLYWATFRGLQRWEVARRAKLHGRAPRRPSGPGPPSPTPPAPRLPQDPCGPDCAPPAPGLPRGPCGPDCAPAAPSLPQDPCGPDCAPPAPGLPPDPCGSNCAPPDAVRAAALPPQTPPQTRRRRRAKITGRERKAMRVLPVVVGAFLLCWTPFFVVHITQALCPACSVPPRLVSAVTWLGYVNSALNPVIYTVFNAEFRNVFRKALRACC
Kind of test: ChEBML_60841. The source says: Binding affinity for human cloned Dopamine receptor D4

Test [4] has as its target T4, Alpha-2A adrenergic receptor (Homo sapiens, UniProt P08913).
T4 sequence (P08913 whole entry): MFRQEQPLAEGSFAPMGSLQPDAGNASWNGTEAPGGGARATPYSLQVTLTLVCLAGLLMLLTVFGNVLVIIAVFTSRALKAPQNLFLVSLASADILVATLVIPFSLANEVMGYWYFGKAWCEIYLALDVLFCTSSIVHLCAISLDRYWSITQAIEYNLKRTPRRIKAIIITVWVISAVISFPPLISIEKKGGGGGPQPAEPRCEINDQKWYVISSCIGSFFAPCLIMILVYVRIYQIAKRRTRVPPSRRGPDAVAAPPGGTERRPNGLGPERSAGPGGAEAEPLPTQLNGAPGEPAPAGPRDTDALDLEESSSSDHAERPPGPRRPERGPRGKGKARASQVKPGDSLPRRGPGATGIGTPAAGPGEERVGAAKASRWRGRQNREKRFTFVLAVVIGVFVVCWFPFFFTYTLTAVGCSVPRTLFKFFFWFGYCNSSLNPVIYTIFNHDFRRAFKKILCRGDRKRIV
Kind of test: ChEBML_33198. An excerpt:
Binding affinity for human cloned Alpha-2A adrenergic receptor

Test [5] addresses T5, Alpha-1A adrenergic receptor (Homo sapiens, UniProt P35348).
T5 sequence (P35348 whole entry): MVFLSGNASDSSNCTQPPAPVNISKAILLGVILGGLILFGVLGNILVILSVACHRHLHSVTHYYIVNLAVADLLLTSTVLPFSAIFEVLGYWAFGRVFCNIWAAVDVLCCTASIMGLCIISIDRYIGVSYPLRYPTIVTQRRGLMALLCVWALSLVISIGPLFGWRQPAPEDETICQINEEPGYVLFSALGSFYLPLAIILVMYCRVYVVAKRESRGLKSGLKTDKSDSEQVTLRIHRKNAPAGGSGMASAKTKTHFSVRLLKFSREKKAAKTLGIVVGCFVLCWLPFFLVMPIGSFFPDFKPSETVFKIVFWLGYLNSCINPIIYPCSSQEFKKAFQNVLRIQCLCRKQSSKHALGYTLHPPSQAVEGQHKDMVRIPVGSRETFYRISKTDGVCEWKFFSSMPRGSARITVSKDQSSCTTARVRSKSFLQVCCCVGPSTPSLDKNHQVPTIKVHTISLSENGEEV
Kind of test: ChEBML_33869. An excerpt: Binding affinity for human cloned Alpha-1A adrenergic receptor

For test [6], the target named is T6, 5-hydroxytryptamine receptor 2A (Homo sapiens, UniProt P28223). In words: ChEBML_2507. The source says: (§1) Binding affinity for human cloned 5-HT2A receptor expressed in L929 cells using [125I]R91150 as radioligand
The target of test [7] is D(2) dopamine receptor (Rattus norvegicus, UniProt P61169). In words: ChEBML_60811. The source says:
Binding affinity for rat Dopamine receptor D2

Test [8] has as its target T7, 5-hydroxytryptamine receptor 1A (Homo sapiens, UniProt P08908).
T7 sequence (P08908 whole entry): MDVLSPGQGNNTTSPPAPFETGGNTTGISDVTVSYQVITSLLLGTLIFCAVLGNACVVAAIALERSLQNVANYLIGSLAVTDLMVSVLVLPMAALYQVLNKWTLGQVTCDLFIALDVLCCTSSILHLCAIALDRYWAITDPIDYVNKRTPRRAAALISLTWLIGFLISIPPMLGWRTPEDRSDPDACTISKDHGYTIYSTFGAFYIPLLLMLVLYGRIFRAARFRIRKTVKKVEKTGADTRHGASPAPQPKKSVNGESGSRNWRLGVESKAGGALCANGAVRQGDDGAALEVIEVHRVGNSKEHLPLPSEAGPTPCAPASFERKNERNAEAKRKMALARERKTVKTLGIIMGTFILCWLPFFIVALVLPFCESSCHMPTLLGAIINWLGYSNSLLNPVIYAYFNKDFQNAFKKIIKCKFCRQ
In words: ChEBML_1016. An excerpt: Binding affinity for human cloned 5-hydroxytryptamine 1A receptor

A further test addresses D(3) dopamine receptor (Homo sapiens, UniProt P35462). In words: ChEBML_62451. The source says: Binding affinity for human cloned Dopamine receptor D3
The target in test [9] is D(2) dopamine receptor (Homo sapiens, UniProt P14416). Kind of test: ChEBML_61646. The source says: Binding affinity for human cloned Dopamine receptor D2L
In test [10] the target is T6, 5-hydroxytryptamine receptor 2A. The description is as §1.

Sequence of 5-hydroxytryptamine receptor 1D (P28221 whole entry): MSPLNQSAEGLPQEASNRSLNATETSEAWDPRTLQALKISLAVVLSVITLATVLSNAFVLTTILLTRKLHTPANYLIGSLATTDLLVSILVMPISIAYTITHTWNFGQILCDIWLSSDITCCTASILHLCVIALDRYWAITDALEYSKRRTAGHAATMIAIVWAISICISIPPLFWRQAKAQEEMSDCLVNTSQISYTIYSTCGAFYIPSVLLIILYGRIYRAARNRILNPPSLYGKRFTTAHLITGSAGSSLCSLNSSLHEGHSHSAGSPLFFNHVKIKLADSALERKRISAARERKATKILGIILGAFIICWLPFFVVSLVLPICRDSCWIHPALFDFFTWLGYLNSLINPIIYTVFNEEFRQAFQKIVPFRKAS
Sequence of D(3) dopamine receptor (P35462 as listed by the source): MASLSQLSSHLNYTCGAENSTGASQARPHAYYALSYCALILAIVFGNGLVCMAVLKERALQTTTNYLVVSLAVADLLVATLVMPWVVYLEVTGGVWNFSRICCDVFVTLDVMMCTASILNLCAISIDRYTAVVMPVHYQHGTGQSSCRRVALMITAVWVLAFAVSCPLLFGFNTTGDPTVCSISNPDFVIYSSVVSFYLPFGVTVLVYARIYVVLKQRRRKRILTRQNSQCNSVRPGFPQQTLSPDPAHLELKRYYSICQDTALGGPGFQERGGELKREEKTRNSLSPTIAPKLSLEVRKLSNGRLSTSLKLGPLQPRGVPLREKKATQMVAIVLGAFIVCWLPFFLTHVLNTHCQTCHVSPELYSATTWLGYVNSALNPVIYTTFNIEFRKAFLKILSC
Sequence of D(2) dopamine receptor (Rattus norvegicus, UniProt P61169) (P61169 whole entry): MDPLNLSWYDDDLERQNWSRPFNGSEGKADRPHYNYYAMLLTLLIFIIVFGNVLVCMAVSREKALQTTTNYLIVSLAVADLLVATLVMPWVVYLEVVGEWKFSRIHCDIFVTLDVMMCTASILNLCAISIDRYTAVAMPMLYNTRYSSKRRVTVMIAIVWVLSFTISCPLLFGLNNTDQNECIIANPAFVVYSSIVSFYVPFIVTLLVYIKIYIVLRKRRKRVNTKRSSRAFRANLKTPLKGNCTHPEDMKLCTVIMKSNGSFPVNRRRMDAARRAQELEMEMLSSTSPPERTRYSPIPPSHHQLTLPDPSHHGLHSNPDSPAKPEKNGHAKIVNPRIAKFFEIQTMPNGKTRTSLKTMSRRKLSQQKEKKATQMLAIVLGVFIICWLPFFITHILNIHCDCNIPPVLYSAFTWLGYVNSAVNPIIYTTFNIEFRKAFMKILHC
T6 sequence (P28223 whole entry): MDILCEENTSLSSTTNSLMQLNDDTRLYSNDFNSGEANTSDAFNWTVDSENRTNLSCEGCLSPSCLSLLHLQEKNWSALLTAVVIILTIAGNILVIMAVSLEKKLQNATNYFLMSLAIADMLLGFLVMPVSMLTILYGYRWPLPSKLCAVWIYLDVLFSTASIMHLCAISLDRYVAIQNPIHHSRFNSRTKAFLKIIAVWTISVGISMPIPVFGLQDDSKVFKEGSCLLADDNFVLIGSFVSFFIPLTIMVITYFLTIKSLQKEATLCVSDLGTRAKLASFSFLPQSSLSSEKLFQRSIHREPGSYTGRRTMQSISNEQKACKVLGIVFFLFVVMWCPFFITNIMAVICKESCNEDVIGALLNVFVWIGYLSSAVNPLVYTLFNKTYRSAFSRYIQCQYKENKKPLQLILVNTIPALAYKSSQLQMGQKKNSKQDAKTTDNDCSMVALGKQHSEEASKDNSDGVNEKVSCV
Sequence of D(2) dopamine receptor (Homo sapiens, UniProt P14416) (P14416 whole entry): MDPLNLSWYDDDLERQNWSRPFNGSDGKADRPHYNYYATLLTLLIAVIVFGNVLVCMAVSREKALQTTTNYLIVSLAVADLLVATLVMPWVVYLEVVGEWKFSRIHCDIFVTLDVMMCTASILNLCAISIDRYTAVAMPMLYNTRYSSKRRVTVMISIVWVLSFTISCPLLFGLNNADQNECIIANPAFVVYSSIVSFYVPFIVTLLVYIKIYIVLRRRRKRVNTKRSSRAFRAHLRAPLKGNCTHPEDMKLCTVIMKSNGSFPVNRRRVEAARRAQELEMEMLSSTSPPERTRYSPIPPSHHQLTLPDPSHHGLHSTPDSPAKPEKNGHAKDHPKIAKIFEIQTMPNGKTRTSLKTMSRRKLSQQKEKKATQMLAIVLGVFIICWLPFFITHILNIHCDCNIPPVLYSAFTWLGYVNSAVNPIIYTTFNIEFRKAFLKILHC
Sequence of Histamine H1 receptor (P35367 whole entry): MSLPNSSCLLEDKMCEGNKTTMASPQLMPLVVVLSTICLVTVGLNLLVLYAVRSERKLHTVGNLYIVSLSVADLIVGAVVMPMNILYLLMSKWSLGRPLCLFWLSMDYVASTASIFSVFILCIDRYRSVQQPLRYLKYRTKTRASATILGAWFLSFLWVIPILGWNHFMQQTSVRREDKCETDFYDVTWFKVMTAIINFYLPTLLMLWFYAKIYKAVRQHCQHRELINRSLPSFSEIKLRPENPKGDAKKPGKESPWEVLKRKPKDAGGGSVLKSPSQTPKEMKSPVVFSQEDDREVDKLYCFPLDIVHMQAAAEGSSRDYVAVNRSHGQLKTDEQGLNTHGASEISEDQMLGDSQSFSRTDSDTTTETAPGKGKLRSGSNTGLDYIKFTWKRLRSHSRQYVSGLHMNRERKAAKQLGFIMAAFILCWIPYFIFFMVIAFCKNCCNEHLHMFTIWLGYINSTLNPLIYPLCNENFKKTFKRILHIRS

Turning to `CN(C)CC1CC2c3cccc(F)c3Cc3ccccc3N2O1` (configuration not stated), the IC50 (in general, the midpoint of a concentration-inhibition curve) in test [1] came to 12 nM; against Histamine H1 receptor it was 2.3 nM.
On to `Cc1ccc2c(c1)Cc1ccccc1N1OC(CN(C)C)CC21` (configuration not stated), for which the IC50 in test [1] amounted to 6.3 nM; on Histamine H1 receptor it was 16 nM.
In the case of `Cc1ccc2c(c1)N1OC(CN(C)C)CC1c1ccccc1C2` (configuration not stated), the IC50 in [2] is under 1000 nM; in test [3], under 1000 nM; in [1] it was 3 nM; on D(4) dopamine receptor it was under 1000 nM; on Histamine H1 receptor it was 5.9 nM; in test [4], under 1000 nM. In addition, the concentration for half-maximal inhibition (IC50) in test [5] is 43 nM; in test [6], 3.1 nM; at D(2) dopamine receptor [7] it was under 1000 nM; in [8] it was under 1000 nM; at D(3) dopamine receptor, under 1000 nM; against D(2) dopamine receptor [9] it was 55 nM.
Consider `COc1ccc2c(c1)C1CC(CN(C)C)ON1c1ccccc1C2` (configuration not stated), for which the IC50 worked out at 19 nM in [1], 14 nM at Histamine H1 receptor and 302 nM in test [6].
On to `CN(C)CC1CC2c3ccccc3Cc3cc(F)ccc3N2O1` (configuration not stated), for which the IC50 in test [1] amounted to 4.7 nM; against Histamine H1 receptor, 1.3 nM; in test [6] it was 6.9 nM.
For the molecule `CN(C)CC1CC2c3ccccc3Cc3c(F)cccc3N2O1` (configuration not stated), the figures for the IC50 (in test [1]; on Histamine H1 receptor; in test [6]) were 5 nM, 1.7 nM and 24 nM, respectively.
Consider `Cc1cccc2c1C1CC(CN(C)C)ON1c1ccccc1C2` (configuration not stated), for which the results for the IC50 (in test [1]; on Histamine H1 receptor; in test [6]) were 30 nM, 12 nM and 48 nM, respectively.
In the case of `CN(C)CC1CC2c3ccccc3Cc3ccc(F)cc3N2O1` (configuration not stated), the IC50 in test [2] was determined as 1170 nM; in test [3], 302 nM; against D(4) dopamine receptor, 14 nM; against Histamine H1 receptor it was 2.6 nM; in [4] it was 501 nM; in test [5], 45 nM. In addition, the IC50 was under 1000 nM on D(2) dopamine receptor [7], 1590 nM in [8], 14 nM against D(3) dopamine receptor and 36 nM against D(2) dopamine receptor [9].
Regarding `CN(C)CC1CC2c3cc(F)ccc3Cc3ccccc3N2O1` (configuration not stated), the IC50 in [1] was found to be 11 nM; against Histamine H1 receptor it was 3.8 nM; in test [6], 54 nM.
In the same order, the values of `CN(C)CC1CC2c3cc(C(F)(F)F)ccc3Cc3ccccc3N2O1` (configuration not stated) are under 1000 nM, under 1000 nM and under 1000 nM.
As for `CN(C)CC1CC2c3cc(F)ccc3Cc3ccc(F)cc3N2O1` (configuration not stated), the IC50 was under 1000 nM in test [2]; under 1000 nM in test [3]; 6.2 nM in test [1]; under 1000 nM against D(4) dopamine receptor; 17 nM against Histamine H1 receptor; under 1000 nM in [4]. Further, the IC50 in [5] is 162 nM; in test [8], under 1000 nM; against D(3) dopamine receptor, under 1000 nM; on D(2) dopamine receptor [9], 447 nM.
In the case of `CN(C)CC1CC2c3c(F)cccc3Cc3ccccc3N2O1` (configuration not stated), the IC50 (in test [1]; on Histamine H1 receptor; in test [6]) was under 1000 nM each time.
For the molecule `CN(C)CC1CC2c3ccccc3Cc3ccc(Cl)cc3N2O1` (configuration not stated), the IC50 was 871 nM in test [2]; 135 nM in test [3]; 1 nM in test [1]; 2.6 nM against D(4) dopamine receptor; 2.3 nM at Histamine H1 receptor; 479 nM in test [4]. Besides, the half-maximal inhibitory concentration (IC50) in [5] amounted to 14 nM; in test [6] it was 3.5 nM; against D(2) dopamine receptor [7], 8.9 nM; in [8] it was 200 nM; against D(3) dopamine receptor, 0.55 nM; against D(2) dopamine receptor [9], 8.7 nM.
Regarding `CN(C)CC1CC2c3c(cccc3C(F)(F)F)Cc3ccccc3N2O1` (configuration not stated), the values for the 50% inhibitory concentration (IC50) (in test [1]; against Histamine H1 receptor; in [6]) were 7.6 nM, 48 nM and 68 nM, respectively.
`CN(C)CC1CC2c3ccccc3Cc3ccc(-c4ccccc4)cc3N2O1` (configuration not stated): the half-inhibitory concentration (IC50) turned out to be 11 nM in test [1], 7.9 nM on Histamine H1 receptor and 22 nM in [10].
Turning to `CN(C)CC1CC2c3cccc(Cl)c3Cc3ccccc3N2O1` (configuration not stated), the IC50 (in test [1]; on Histamine H1 receptor; in test [6]) was under 1000 nM each time.
For `Cc1cccc2c1Cc1ccccc1C1CC(CN(C)C)ON21` (configuration not stated), the values for the IC50 (in test [1]; on Histamine H1 receptor; in test [6]) were 3.9 nM, 6 nM and 91 nM, respectively.
As to `CN(C)CC1CC2c3ccccc3Cc3cccc(Cl)c3N2O1` (configuration not stated), the IC50 in test [1] was 10 nM; on Histamine H1 receptor, 15 nM; in [6], 32 nM.
Regarding `CN(C)CC1CC2c3cccc(C(F)(F)F)c3Cc3ccccc3N2O1` (configuration not stated), the IC50 worked out at 437 nM in test [1], 37 nM on Histamine H1 receptor and 1000 nM in test [6].
